# Source: patent publication US20080300225A1, “PESTICIDAL FORMULATION CONTAINING OXYMATRINE OR MATRINE” (Marrone Organic Innovations, priority 2007, published 2008)
# Several values for one entry are separate records, joined by “and”; a condition that tells them apart may be missing. Identical values can stand only once. Like-named read-outs stand apart in the source and are kept apart here.
# Test system: Armyworms (Spodoptera exigua)
# Experiment: Contact study on armyworm first instar larvae
# Assay type: in vivo
# Details: for mode of insecticidal action: contact exposure of first instar larvae
# Excerpt: Contact Study of MOI 201 on Armyworms (Spodoptera exigua)
# Objective: Observe the mode of action and the symptoms caused by 0.6% oxymatrine on larvae of armyworms, as well as to quantify the time required for the larvae to become paralyzed or dead.
# Method: Larvae of beet armyworm were taken as first In-star stage and placed on a microscope slide under a stereomicroscope. A drop of the test product was delivered over them and the larvae were left to soak for 30 seconds. Excess liquid was absorbed with a paper towel and the larvae were observed under the microscope. The products tested were Spinosad at 0.3%, Permethrin at 1%, and 0.6% oxymatrine at 800× and 1000× dilutions. Time 1 indicates the time it took before the larva was unable to perform normal activities like crawling, feeding, etc. Time 2 is the additional time needed for complete elimination/death.
# [1] = Spinosad at 0.3%, Permethrin at 1%, 30 s soak, average of 5 reps
# [2] = Spinosad at 0.3%, Permethrin at 1%, 30 s soak, reps 1-5
Compound,"Time 1: time required for paralysis or convulsions, Average",period of time to affect the insect's basic functions,"Time 2: time between paralysis and death, Average [1]","Time 2: time between paralysis and death, single replicate [2]",mode of insecticidal action,"Time 1: time required for paralysis or convulsions, Average [1]","Time 1: time required for paralysis or convulsions, single replicate [2]","period of time to affect the insect's basic functions (text summary of Time 1, Spinosad 0.3%, Permethrin 1%, 0.6% oxymatrine at 800x and 1000x dilutions)"
CC1(C)C(C=C(Cl)Cl)C1C(=O)OCc1cccc(Oc2ccccc2)c1 (centres unmarked) [Permethrin],1.22 min,1.2 min,333.60 min,447 min and 428 min and 397 min and 97 min and 299 min,work as contact insecticides,,,
Spinosad,,,289.00 min,146 min and 180 min and 363 min and 373 min and 383 min,work as contact insecticides,6.99 min,7.58 min and 8.46 min and 6.33 min and 6.4 min and 6.17 min,7.0 min
